Data reported in US7635663B2, “Method for thinning fruit blossoms using eugenol” (The United States of America as represented by the …, priority 2006, dated 2009).
Like-named read-outs stand apart in the source and are kept apart here.

How the values were obtained:
[1] = test system: peach trees (Prunus persica L. 'Redhaven' on Lovell rootstock); format: in vivo; conditions: for Fruit (1 to 2 cm in diameter) one month after application / Fruit (2 to 4 cm in diameter) two months after application / Flowers without wilted pistils and stamens 24 hr after application: of 100 flowers; for Flowers without wilted pistils and stamens 24 hr after application: spring 2003
Method: Materials and methods: Initial work determined general foliar and blossom injury response to increasing rates of eugenol in apple and peach trees. Eugenol was prepared as a suspension in water and applied with a hand-held sprayer (Sure Shot, Milwaukee Sprayer Mfg. Co., Inc., Milwaukee, Wis.) to flowers to the point of drip. Spray was applied to peach trees (Prunus persica L. ‘Redhaven’ on Lovell rootstock) at 60 psi when air temperature was approximately 21° C. with sunny conditions. Naturally-derived eugenol, extracted from cinnamon (Cinnamomum zeylanicum) or clove (Syzgium aromaticum), was obtained from Citrus and Allied (Floral Park, N.Y.). Peach tree flowers were approximately 60% in bloom when eugenol was applied on 14 Apr. 2003. One tree received one application of each concentration of eugenol. One-hundred flowers per tree, uniformly distributed throughout the crown were selected for measurement 24 hr, 1 mo, and 2 mos after application. At 24 hr, flowers with wilted pistils and stamens were considered killed and nonviable. Surviving fruit were counted 1 and 2 mo after application. Peaches were harvested on 7 Aug. 2003 from each treated tree. Total fruit number and weight and size of individual fruit were measured.

[2] = test system: apple trees (Malus domestica 'Ace Spur Red Delicious' on M.7 rootstock); format: in vivo; conditions: for Flowers without wilted pistils and stamens 24 hr after application / Fruit (1 to 2 cm in diameter) one month after application / Fruit (2 to 4 cm in diameter) two months after application: Apple; for Flowers without wilted pistils and stamens 24 hr after application: of 100 flower clusters, spring 2003; for Fruit (1 to 2 cm in diameter) one month after application / Fruit (2 to 4 cm in diameter) two months after application: same 100 flower clusters, five fruit each
Method: Eugenol was applied to apple trees (Malus domestica ‘Ace Spur Red Delicious’ on M.7 rootstock) on 23 Apr. 2003 when “king” blossoms had been fully opened and subtending flowers were just opening. Temperatures were 18° C. under partly sunny conditions. One-hundred five-cluster groups of flowers were evaluated for damage 24 hr after application. Surviving fruit from the original clusters were counted 1 and 2 mo after application. Apples were harvested on 17 Sep. 2003 from each treated tree. Total fruit number and weight and size of individual fruit were measured.

[3] = test system: 'Redhaven' on Lovell peach; experiment: Peach blossom thinning with different thinning agents, mist blower back pack sprayer, 2004; format: in vivo, Prunus persica
Method: In 2004, fewer concentrations of eugenol were tested in comparison with other chemical blossom thinners in apple and peach. […] 2004 with a pressurized power mist blower back pack sprayer. Peach trees had been planted in April 1997 with a 3-m spacing between trees. Treatments included eugenol and Matran® each applied at 1, 2, 4, and 8%. […] Each tree was an experimental unit, buffer trees surrounded each treated tree, and there were 5 replications arranged in a completely randomized design.
Response variables included (1) percent flowers wilted 24 hr after application based on a 100 flower (peach) or flower cluster (apple) sample per tree; (2) number apple fruit retained after June drop from the same 100-flower sample per tree; (3) number and weight of fruit per tree at harvest by size category; (4) visual estimation from two people of foliar and shoot damage. Four branches per tree, each with 25 flowers, were measured; two branches opposite each other were perpendicular to the drive alley and the other two branches were opposite each other and parallel to the drive alley.

[4] = test system: 'Bisbee Spur Delicious' on MM.111 apple trees; experiment: Apple blossom thinning with eugenol and ATS, 2004; format: in vivo, Malus domestica; conditions: for Average fruit weight (g) / Total yield per tree (no.) / Flower burn back (% of flowers injured): Apple 'Bisbee'; for Average fruit weight (g) / Total yield per tree (no.) / Effect on yield: 2004; for Flower burn back (% of flowers injured): April 2004; for Effect on yield: Apple
Method: Each tree was an experimental unit, surrounded by buffer trees, with 4 single tree replications arranged in a completely randomized design.
Four branches per tree, each with 25 flowers, were measured; two branches opposite each other were perpendicular to the drive alley and the other two branches were opposite each other and parallel to the drive alley.

[5] = test system: 'Gala' on M.26 apple trees; format: in vivo, Malus domestica; conditions: for Fruit (no./tree) / Fruit weight (kg/tree) / Individual fruit weight: Apple 'Gala'
Method: On Apr. […] Treatments were arranged in 4-tree plots and there were 4 blocks containing all 8 treatments. Data was collected from 2 trees per plot, so each treatment was an average of 8 trees. Data was analyzed by analysis of variance and Duncan's Multiple Range Test.

Compound: C=CCc1ccc(O)c(OC)c1 [Eugenol, 2-methoxy-4-(2-propenyl)phenol]
- Concentration at which flower injury was apparent ([1]; Peach flowers, 2003): 1.5%
- Fruit (1 to 2 cm in diameter) one month after application ([1]; Peach, 0.5% active ingredient): 64%
- Fruit (2 to 4 cm in diameter) two months after application ([1]; Peach, 0.5% active ingredient): 40%
- Flowers without wilted pistils and stamens 24 hr after application ([1]; Peach, 0.5% active ingredient): 100%
- Fruit (1 to 2 cm in diameter) one month after application ([1]; Peach, 1% active ingredient): 28%
- Fruit (2 to 4 cm in diameter) two months after application ([1]; Peach, 1% active ingredient): 16%
- Flowers without wilted pistils and stamens 24 hr after application ([1]; Peach, 1% active ingredient): 100%
- Fruit (1 to 2 cm in diameter) one month after application ([1]; Peach, 1.5% active ingredient): 36%
- Fruit (2 to 4 cm in diameter) two months after application ([1]; Peach, 1.5% active ingredient): 16%
- Flowers without wilted pistils and stamens 24 hr after application ([1]; Peach, 1.5% active ingredient): 95%
- Fruit (1 to 2 cm in diameter) one month after application ([1]; Peach, 2% active ingredient): 20%
- Fruit (2 to 4 cm in diameter) two months after application ([1]; Peach, 2% active ingredient): 6%
- Flowers without wilted pistils and stamens 24 hr after application ([1]; Peach, 2% active ingredient): 85%
- Fruit (1 to 2 cm in diameter) one month after application ([1]; Peach, 4% active ingredient): 20%
- Fruit (2 to 4 cm in diameter) two months after application ([1]; Peach, 4% active ingredient): 5%
- Flowers without wilted pistils and stamens 24 hr after application ([1]; Peach, 4% active ingredient): 62%
- Fruit (1 to 2 cm in diameter) one month after application ([1]; Peach, 6% active ingredient): 22%
- Fruit (2 to 4 cm in diameter) two months after application ([1]; Peach, 6% active ingredient): 5%
- Flowers without wilted pistils and stamens 24 hr after application ([1]; Peach, 6% active ingredient): 50%
- Fruit (1 to 2 cm in diameter) one month after application ([1]; Peach, 8% active ingredient): 17%
- Fruit (2 to 4 cm in diameter) two months after application ([1]; Peach, 8% active ingredient): 3%
- Flowers without wilted pistils and stamens 24 hr after application ([1]; Peach, 8% active ingredient): 39%
- Fruit (1 to 2 cm in diameter) one month after application ([1]; Peach, 10% active ingredient): 0%
- Fruit (2 to 4 cm in diameter) two months after application ([1]; Peach, 10% active ingredient): 5%
- Flowers without wilted pistils and stamens 24 hr after application ([1]; Peach, 10% active ingredient): 31%
- Time after application until peach flowers began to appear bleached and leaf tips developed necrotic lesions ([1]; Peach, 2003): ≤ 1 h
- Fruit or leaf injury ([1]; in vivo): No fruit or leaf injury
- Phytotoxicity by 2 months after application ([1]; in vivo): no sign of eugenol-induced phytotoxicity
- Concentration at which flower injury was apparent ([2]; Apple flowers, 2003): 1.5%
- Flowers without wilted pistils and stamens 24 hr after application ([2]; 0.5% active ingredient): 100%
- Fruit (1 to 2 cm in diameter) one month after application ([2]; 0.5% active ingredient): 18%
- Fruit (2 to 4 cm in diameter) two months after application ([2]; 0.5% active ingredient): 16%
- Flowers without wilted pistils and stamens 24 hr after application ([2]; 1% active ingredient): 100%
- Fruit (1 to 2 cm in diameter) one month after application ([2]; 1% active ingredient): 9%
- Fruit (2 to 4 cm in diameter) two months after application ([2]; 1% active ingredient): 17%
- Flowers without wilted pistils and stamens 24 hr after application ([2]; 1.5% active ingredient): 93%
- Fruit (1 to 2 cm in diameter) one month after application ([2]; 1.5% active ingredient): 10%
- Fruit (2 to 4 cm in diameter) two months after application ([2]; 1.5% active ingredient): 12%
- Flowers without wilted pistils and stamens 24 hr after application ([2]; 2% active ingredient): 93%
- Fruit (1 to 2 cm in diameter) one month after application ([2]; 2% active ingredient): 10%
- Fruit (2 to 4 cm in diameter) two months after application ([2]; 2% active ingredient): 10%
- Flowers without wilted pistils and stamens 24 hr after application ([2]; 4% active ingredient): 68%
- Fruit (1 to 2 cm in diameter) one month after application ([2]; 4% active ingredient): 8%
- Fruit (2 to 4 cm in diameter) two months after application ([2]; 4% active ingredient): 6%
- Flowers without wilted pistils and stamens 24 hr after application ([2]; 6% active ingredient): 43%
- Fruit (1 to 2 cm in diameter) one month after application ([2]; 6% active ingredient): 1%
- Fruit (2 to 4 cm in diameter) two months after application ([2]; 6% active ingredient): 2%
- Flowers without wilted pistils and stamens 24 hr after application ([2]; 8% active ingredient): 32%
- Fruit (1 to 2 cm in diameter) one month after application ([2]; 8% active ingredient): 2%
- Fruit (2 to 4 cm in diameter) two months after application ([2]; 8% active ingredient): 2%
- Flowers without wilted pistils and stamens 24 hr after application ([2]; 10% active ingredient): 27%
- Fruit (1 to 2 cm in diameter) one month after application ([2]; 10% active ingredient): 1%
- Fruit (2 to 4 cm in diameter) two months after application ([2]; 10% active ingredient): 0%
- Fruit or leaf injury ([2]; in vivo): no fruit or leaf injury
- Phytotoxicity by 2 months after application ([2]; in vivo): no sign of eugenol-induced phytotoxicity
- Rates at which fruit number was reduced [3]; 2004: higher than 2%
- Average fruit weight (g) ([3]; rate 1%, 2004): 76 cde g
- Total yield per tree (no.) ([3]; rate 1%, 2004): 684 a no.
- Flower burn back (% of flowers injured) ([3]; rate 1%, April 2004): 15 b^a %
- Average fruit weight (g) ([3]; rate 2%, 2004): 87 bcde g
- Total yield per tree (no.) ([3]; rate 2%, 2004): 384 bc no.
- Flower burn back (% of flowers injured) ([3]; rate 2%, April 2004): 27 ab %
- Flower burn back (% of flowers injured) ([3]; rate 2%, April 2004, listed as eugenol): 27%
- Average fruit weight (g) ([3]; rate 4%, 2004): 103 abc g
- Total yield per tree (no.) ([3]; rate 4%, 2004): 470 abc no.
- Flower burn back (% of flowers injured) ([3]; rate 4%, April 2004): 39 ab %
- Flower burn back (% of flowers injured) ([3]; rate 4%, April 2004, listed as eugenol): 49%
- Average fruit weight (g) ([3]; rate 8%, 2004): 112 ab g
- Total yield per tree (no.) ([3]; rate 8%, 2004): 404 bc no.
- Flower burn back (% of flowers injured) ([3]; rate 8%, April 2004): 49 a %
- Flower burn back (% of flowers injured) ([3]; rate 8%, April 2004, listed as eugenol): approximately 50%
- Average fruit weight (g) ([4]; rate 2%): 152 a g
- Total yield per tree (no.) ([4]; rate 2%): 543 a no.
- Flower burn back (% of flowers injured) ([4]; rate 2%): 45 a %
- Average fruit weight (g) ([4]; rate 4%): 155 a g
- Total yield per tree (no.) ([4]; rate 4%): 462 a no.
- Flower burn back (% of flowers injured) ([4]; rate 4%): 50 a %
- Average fruit weight (g) ([4]; rate 6%): 167 a g
- Total yield per tree (no.) ([4]; rate 6%): 443 a no.
- Flower burn back (% of flowers injured) ([4]; rate 6%): 53 a %
- Effect on yield [4]: did not affect yield
- Fruit (no./tree) ([5]; thinner applied at 4%, 2005): 137 no./tree
- Fruit weight (kg/tree) ([5]; thinner applied at 4%, 2005): 20.5 kg/tree
- Individual fruit weight ([5]; thinner applied at 4%, 2005): 148 g
- Fruit (no./tree) ([5]; thinner applied at 6%, 2005): 86 no./tree
- Fruit weight (kg/tree) ([5]; thinner applied at 6%, 2005): 10.2 kg/tree
- Individual fruit weight ([5]; thinner applied at 6%, 2005): 129 g
- Leaf injury ([5]; in vivo): injury was superficial, did not persist, and was not observed within four weeks of application

Compound: ammonium thiosulfate [ATS, reference compound]
- Fruit number per peach tree compared with control [3]; 2004: reduced
- Average fruit weight (g) ([3]; applied at 5.25 gal/A, 2004): 125 a g
- Total yield per tree (no.) ([3]; applied at 5.25 gal/A, 2004): 345 c no.
- Average fruit weight (g) ([4]; applied at 3.5 gal/A): 153 a g
- Total yield per tree (no.) ([4]; applied at 3.5 gal/A): 570 a no.
- Flower burn back (% of flowers injured) ([4]; applied at 3.5 gal/A): 50 a %
- Effect on yield [4]: did not affect yield
- Fruit (no./tree) ([5]; thinner applied at 2%, 2005): 789 no./tree
- Fruit weight (kg/tree) ([5]; thinner applied at 2%, 2005): 83.3 kg/tree
- Individual fruit weight ([5]; thinner applied at 2%, 2005): 109 g
- Fruit (no./tree) ([5]; thinner applied at 4%, 2005): 706 no./tree
- Fruit weight (kg/tree) ([5]; thinner applied at 4%, 2005): 79.8 kg/tree
- Individual fruit weight ([5]; thinner applied at 4%, 2005): 120 g
- Performance as thinner ([5]; Apple, 2005): not a good thinner
